For test [1], the target named is T1, 5-hydroxytryptamine receptor 1A (Homo sapiens, UniProt P08908).
T1 sequence (P08908 whole entry): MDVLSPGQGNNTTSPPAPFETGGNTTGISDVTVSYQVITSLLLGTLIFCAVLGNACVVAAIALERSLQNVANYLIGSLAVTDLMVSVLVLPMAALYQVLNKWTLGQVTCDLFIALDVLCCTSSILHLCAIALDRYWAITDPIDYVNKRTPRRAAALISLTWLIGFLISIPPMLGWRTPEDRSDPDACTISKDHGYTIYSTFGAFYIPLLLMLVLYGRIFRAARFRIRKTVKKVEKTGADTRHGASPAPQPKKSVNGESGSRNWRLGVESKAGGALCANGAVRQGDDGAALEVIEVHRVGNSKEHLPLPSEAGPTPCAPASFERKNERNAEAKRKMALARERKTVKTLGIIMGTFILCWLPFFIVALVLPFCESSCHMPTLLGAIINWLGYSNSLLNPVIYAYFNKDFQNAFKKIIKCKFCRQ
Nature of the test: Displacement of [3H]-8-OH-DPAT from 5HT1A receptor after 1.5 hrs by liquid scintillation counting. A general note: Displacement assays read how much labelled ligand stays bound in the presence of the test substance.

In test [2] the target is Beta-2 adrenergic receptor (Homo sapiens, UniProt P07550). Kind of test: Displacement of [125I]-Iodopindolol from beta2-adrenergic receptor after 1.5 hrs by liquid scintillation counting.
Test [3] addresses Beta-1 adrenergic receptor (Homo sapiens, UniProt P08588). Nature of the test: Displacement of [125I]-Iodopindolol from beta1-adrenergic receptor after 1.5 hrs by liquid scintillation counting.
The target in test [4] is Beta-1 adrenergic receptor (Rattus norvegicus, UniProt P18090). Nature of the test: Displacement of [3H]-CGP12177 from beta1-adrenergic receptor in rat heart membranes. It counts as cell membranes, Membrane.

Structures are written as SMILES. Some results are limits rather than exact numbers.

Chain of Beta-2 adrenergic receptor (P07550 whole entry): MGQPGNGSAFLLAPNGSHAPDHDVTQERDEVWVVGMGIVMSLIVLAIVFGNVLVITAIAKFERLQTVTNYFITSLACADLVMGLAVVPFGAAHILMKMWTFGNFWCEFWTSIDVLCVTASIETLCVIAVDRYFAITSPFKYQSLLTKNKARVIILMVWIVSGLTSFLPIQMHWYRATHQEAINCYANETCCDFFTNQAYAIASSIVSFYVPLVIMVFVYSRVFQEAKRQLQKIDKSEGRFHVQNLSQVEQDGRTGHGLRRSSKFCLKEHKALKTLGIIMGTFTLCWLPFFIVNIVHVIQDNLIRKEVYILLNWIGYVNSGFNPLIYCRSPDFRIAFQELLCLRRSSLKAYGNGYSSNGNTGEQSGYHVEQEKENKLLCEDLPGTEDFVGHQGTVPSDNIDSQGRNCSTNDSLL
Chain of Beta-1 adrenergic receptor (Homo sapiens, UniProt P08588) (P08588 whole entry): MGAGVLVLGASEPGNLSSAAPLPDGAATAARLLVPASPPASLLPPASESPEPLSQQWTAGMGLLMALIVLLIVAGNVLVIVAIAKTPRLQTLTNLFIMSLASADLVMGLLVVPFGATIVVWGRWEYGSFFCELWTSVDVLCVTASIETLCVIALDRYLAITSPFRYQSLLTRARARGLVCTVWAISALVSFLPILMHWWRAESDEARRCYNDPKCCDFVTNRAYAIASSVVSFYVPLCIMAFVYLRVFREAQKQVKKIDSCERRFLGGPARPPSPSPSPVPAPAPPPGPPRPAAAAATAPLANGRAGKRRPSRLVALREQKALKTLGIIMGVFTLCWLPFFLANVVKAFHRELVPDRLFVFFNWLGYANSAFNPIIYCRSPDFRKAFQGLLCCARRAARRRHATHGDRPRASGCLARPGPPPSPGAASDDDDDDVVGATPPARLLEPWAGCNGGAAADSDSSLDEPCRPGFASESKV
Chain of Beta-1 adrenergic receptor (Rattus norvegicus, UniProt P18090) (P18090 whole entry): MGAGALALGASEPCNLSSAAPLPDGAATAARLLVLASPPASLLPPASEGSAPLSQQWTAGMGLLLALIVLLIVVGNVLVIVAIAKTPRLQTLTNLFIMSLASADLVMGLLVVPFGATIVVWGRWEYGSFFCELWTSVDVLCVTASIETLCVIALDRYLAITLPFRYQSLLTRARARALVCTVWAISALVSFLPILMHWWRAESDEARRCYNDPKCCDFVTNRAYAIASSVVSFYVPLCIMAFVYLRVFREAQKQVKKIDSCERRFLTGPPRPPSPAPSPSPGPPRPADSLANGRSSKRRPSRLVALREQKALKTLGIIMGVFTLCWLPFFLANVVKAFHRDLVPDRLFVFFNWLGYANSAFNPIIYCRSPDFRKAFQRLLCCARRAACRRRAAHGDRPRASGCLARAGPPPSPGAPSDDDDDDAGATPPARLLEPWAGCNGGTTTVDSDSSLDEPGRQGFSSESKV

For orientation: Ki means the equilibrium dissociation constant of an inhibitor or competing ligand from its target. Lower therefore signals higher affinity. Regarding `COc1ccc2nc(-c3ccc(OC[C@@H](O)CNC(C)CF)cc3)n(C)c(=O)c2c1` (stereo not given in full), the Ki in test [1] is greater than 10 µM; in test [2], greater than 10 µM; in test [3], 3 µM.

`COc1ccc2nc(-c3ccc(OCC(O)CNC(C)(C)C)cc3)n([11CH3])c(=O)c2c1` (racemic) gave a Ki in test [4] of 0.077 µM.

With `COc1ccc2nc(-c3ccc(OCC(O)CNC(C)CF)cc3)n(C)c(=O)c2c1` (mixture of isomers), the inhibition constant Ki was greater than 10 µM in test [1], greater than 10 µM in test [2] and 2.3 µM in test [3].

Turning to `COc1ccc2nc(-c3ccc(OCC(O)CNC(C)C)cc3)n(C)c(=O)c2c1` (racemic), the Ki in test [1] came out at 5.5 µM; in test [2] it was 7.7 µM; in test [3], 2.4 µM.

Source of the values: ChEMBL document CHEMBL1821724, “Synthesis and in vitro evaluation of derivatives of the β₁-adrenergic receptor antagonist HX-CH 44” (Bioorg Med Chem Lett, 2011).
